Data as given in US20250057844A1, “METHODS OF TREATING NEOPLASTIC DISEASES” (SILLAJEN, INC., priority 2021, published 2025).
Read-outs that look alike come from different tables or passages of the source.

Assay: Second PK study: daily oral dose for 5 days, two formulations
Assay type: in vivo, female Swiss Albino mice
Settings: for AUC(0-t): AUC0-24 h
Description: In a second study female Swiss Albino mice were administered daily oral dose of 5, 7.5, or 10 mg/kg of the compound of formula (I) for 5 days. […] PK samples were collected on day 5 for groups 1 to 6. Formulation 1 consisted of DMSO, cremophor EL, and 5% mannitol in water (10/10/80; v/v/v). Formulation 2 consisted of ethanol, PEG 400, and citric acid 20 mM (10/10/80; v/v/v). […] In each of the three studies blood was collected via the sephanous vein into K2-EDTA tubes kept on ice until centrifugation at 4° C. Plasma was stored at ap-proximately-80° C. […] PK parameters were calculated using Phoenix® WinNonLin 6.4. PK analysis was based on sparse sampling.

[1] = day 5, daily oral 5 mg/kg, Formulation 1, female mice
[2] = day 5, daily oral 5 mg/kg, Formulation 2, female mice
[3] = day 5, daily oral 7.5 mg/kg, Formulation 1, female mice
[4] = day 5, daily oral 7.5 mg/kg, Formulation 2, female mice
[5] = day 5, daily oral 10 mg/kg, Formulation 1, female mice
[6] = day 5, daily oral 10 mg/kg, Formulation 2, female mice
[7] = female, Swiss Albino, mouse, plasma, po, 5 mg/kg, day 5, daily oral 5 mg/kg, Formulation 1, female mice
[8] = female, Swiss Albino, mouse, plasma, po, 5 mg/kg, day 5, daily oral 5 mg/kg, Formulation 2, female mice
[9] = female, Swiss Albino, mouse, plasma, po, 7.5 mg/kg, day 5, daily oral 7.5 mg/kg, Formulation 1, female mice
[10] = female, Swiss Albino, mouse, plasma, po, 7.5 mg/kg, day 5, daily oral 7.5 mg/kg, Formulation 2, female mice
[11] = female, Swiss Albino, mouse, plasma, po, 10 mg/kg, day 5, daily oral 10 mg/kg, Formulation 1, female mice
[12] = female, Swiss Albino, mouse, plasma, po, 10 mg/kg, day 5, daily oral 10 mg/kg, Formulation 2, female mice

COc1cc(N2CCNCC2)ccc1Nc1ncc2c(n1)-n1ccc(C(=O)Nc3c(C)cccc3C)c1CC2 [compound of formula (I)]
Tmax (Swiss Albino, mouse, plasma, day 5, daily oral 5 mg/kg, Formulation 1, female mice, read-out: Tmax): 2 h | Tmax (Swiss Albino, mouse, plasma, day 5, daily oral 7.5 mg/kg, Formulation 1, female mice, read-out: Tmax): 4 h | Tmax (Swiss Albino, mouse, plasma, day 5, daily oral 10 mg/kg, Formulation 1, female mice, read-out: Tmax): 4 h | % extrapolated [1]: 8.33% | AUCinf/Dose [1]: 81.6 ng·h/mL/mg/kg | AUClast/Dose [1]: 74.8 (h*ng/mL)/(mg/kg) | Cmax/Dose [1]: 5.16 (ng/mL)/(mg/kg) | % extrapolated [2]: 1.53% | AUCinf/Dose [2]: 116 ng·h/mL/mg/kg | AUClast/Dose [2]: 114 (h*ng/mL)/(mg/kg) | Cmax/Dose [2]: 9.48 (ng/mL)/(mg/kg) | % extrapolated [3]: 5.04% | AUCinf/Dose [3]: 50 ng·h/mL/mg/kg | AUClast/Dose [3]: 47.5 (h*ng/mL)/(mg/kg) | Cmax/Dose [3]: 6.03 (ng/mL)/(mg/kg) | % extrapolated [4]: 1.77% | AUCinf/Dose [4]: 82.4 ng·h/mL/mg/kg | AUClast/Dose [4]: 80.9 (h*ng/mL)/(mg/kg) | Cmax/Dose [4]: 8.36 (ng/mL)/(mg/kg) | % extrapolated [5]: 7.41% | AUCinf/Dose [5]: 60.8 ng·h/mL/mg/kg | AUClast/Dose [5]: 56.3 (h*ng/mL)/(mg/kg) | Cmax/Dose [5]: 4.01 (ng/mL)/(mg/kg) | % extrapolated [6]: 12.7% | AUCinf/Dose [6]: 87 ng·h/mL/mg/kg | AUClast/Dose [6]: 76 (h*ng/mL)/(mg/kg) | Cmax/Dose [6]: 5.65 (ng/mL)/(mg/kg) | bioavailability (female, Swiss Albino, mouse, plasma, oral, multiple daily dose administration, based on i.v. exposure, read-out: oral bioavailability): 18 to 41% | AUC(0-inf) [7]: 408 ng·h/mL | Cmax [7]: 25.8 ng/mL | AUC(0-t) [7]: 374 ng·h/mL | bioavailability (female, Swiss Albino, mouse, plasma, po, 5 mg/kg, day 5, daily oral 5 mg/kg, Formulation 1, female mice, based on iv exposure, read-out: F (%)): 29% | half-life at 5 days (female, Swiss Albino, mouse, plasma, po, 5 mg/kg, day 5, daily oral 5 mg/kg, Formulation 1, female mice, read-out: Apparent T1/2 (converted)): 7.8 h | AUC(0-inf) [8]: 579 ng·h/mL | Cmax [8]: 47.4 ng/mL | AUC(0-t) [8]: 570 ng·h/mL | bioavailability (female, Swiss Albino, mouse, plasma, po, 5 mg/kg, day 5, daily oral 5 mg/kg, Formulation 2, female mice, based on iv exposure, read-out: F (%)): 41% | half-life (female, Swiss Albino, mouse, plasma, po, 5 mg/kg, day 5, daily oral 5 mg/kg, Formulation 2, female mice, read-out: Apparent T1/2 (converted)): 4.02 h | AUC(0-inf) [9]: 375 ng·h/mL | Cmax [9]: 45.2 ng/mL | AUC(0-t) [9]: 356 ng·h/mL | bioavailability (female, Swiss Albino, mouse, plasma, po, 7.5 mg/kg, day 5, daily oral 7.5 mg/kg, Formulation 1, female mice, based on iv exposure, read-out: F (%)): 18% | half-life (female, Swiss Albino, mouse, plasma, po, 7.5 mg/kg, day 5, daily oral 7.5 mg/kg, Formulation 1, female mice, read-out: Apparent T1/2 (converted)): 5.31 h | AUC(0-inf) [10]: 618 ng·h/mL | Cmax [10]: 62.7 ng/mL | AUC(0-t) [10]: 607 ng·h/mL | bioavailability (female, Swiss Albino, mouse, plasma, po, 7.5 mg/kg, day 5, daily oral 7.5 mg/kg, Formulation 2, female mice, based on iv exposure, read-out: F (%)): 29% | half-life (female, Swiss Albino, mouse, plasma, po, 7.5 mg/kg, day 5, daily oral 7.5 mg/kg, Formulation 2, female mice, read-out: Apparent T1/2 (converted)): 3.79 h | AUC(0-inf) [11]: 608 ng·h/mL | Cmax [11]: 40.1 ng/mL | AUC(0-t) [11]: 563 ng·h/mL | bioavailability (female, Swiss Albino, mouse, plasma, po, 10 mg/kg, day 5, daily oral 10 mg/kg, Formulation 1, female mice, based on iv exposure, read-out: F (%)): 22% | half-life (female, Swiss Albino, mouse, plasma, po, 10 mg/kg, day 5, daily oral 10 mg/kg, Formulation 1, female mice, read-out: Apparent T1/2 (converted)): 5.81 h | AUC(0-inf) [12]: 870 ng·h/mL | Cmax [12]: 56.5 ng/mL | AUC(0-t) [12]: 760 ng·h/mL | bioavailability (female, Swiss Albino, mouse, plasma, po, 10 mg/kg, day 5, daily oral 10 mg/kg, Formulation 2, female mice, based on iv exposure, read-out: F (%)): 31% | half-life (female, Swiss Albino, mouse, plasma, po, 10 mg/kg, day 5, daily oral 10 mg/kg, Formulation 2, female mice, read-out: Apparent T1/2 (converted)): 7.66 h | Tmax (female, Swiss Albino, mouse, plasma, day 5 of daily oral administration, read-out: median Tmax): 2 to 4 h
